Results from patent US6369058B1 (New Millennium Pharmaceutical Research Inc., priority 1999, dated 2002).

Key:
[1] = in vivo; cited from earlier work
[2] = Absorption of folic acid from the nasal cavity of rats (in vivo technique, spectrophotometric assay of nasal washings); conditions: rat, intranasal 0.1 ml of folic acid solution (50 mg/10 ml, pH 8.3), nasal cavity washed with 3 ml water
Description: Rats were fasted overnight prior to experimentation. Surgical procedures were performed under equithesin anesthesia (3 ml/kg, i.p.). An incision was made in the neck of each rat, and the trachea cannulated with polyethylene tubing (PF-260). A closed end tube was inserted through the esophagus to the posterior part of the nasal cavity to prevent drug from entering the esophagus. The nasopalatine passage was closed with an adhesive agent to prevent drainage of the drug from the nasal cavity to the mouth.
The solution was filtered. The final pH was 8.3.
The washings were placed in a spectrophotometer cell and the absorbance was measured.

Row | Concentration of folic acid in the nasal cavity ([2]; time 0 min) [mg %] | Concentration of folic acid in the nasal cavity ([2]; time 2 min) [mg %] | Concentration of folic acid in the nasal cavity ([2]; time 5 min) [mg %] | Concentration of folic acid in the nasal cavity ([2]; time 15 min) [mg %] | SMILES | Patients with abdominal cramping, nausea, vomiting, and diarrhea [1] | Patients with elevation of serum transaminases (hepatotoxicity) [1]
1 |  |  |  |  | Nc1c2c(nc3ccccc13)CCCC2 [tacrine, 1,2,3,4-tetrahydro-9-aminoacridine] | up to one-third | up to 20 % of patients
2 | 4.1 | 3.8 | 2.9 | 2.6 | Nc1nc(=O)c2nc(CNc3ccc(C(=O)NC(CCC(=O)O)C(=O)O)cc3)cnc2[nH]1 [folic acid, N-[4-[[(2-Amino-1,4-dihydro-4-oxo-6-pteridinyl)methly]amino]benzoyl]-L-glutamic acid] |  | 
